Biological target: AKT1 (Homo sapiens (Human), UniProt P31749)
Experiment: Inactive Akt Alpha Screen Assay
Details: non *labeled: Akt Alpha Screen assay; read-out: AKT1 biochemical assay, IC50
Outline: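 AKT1 activated in situ by PDK1, MAPKAPK2, lipid vesicles and ATP, then phosphorylating biotinylated crosstide for 30 min at room temperature. Stopped with 10 mM EDTA; phosphopeptide detected by AlphaScreen using phospho-AKT substrate antibody (1:350), Protein A acceptor and streptavidin donor beads, 90 min dark, ex 640/em 570 nm.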

Chain of AKT1 (P31749 whole entry): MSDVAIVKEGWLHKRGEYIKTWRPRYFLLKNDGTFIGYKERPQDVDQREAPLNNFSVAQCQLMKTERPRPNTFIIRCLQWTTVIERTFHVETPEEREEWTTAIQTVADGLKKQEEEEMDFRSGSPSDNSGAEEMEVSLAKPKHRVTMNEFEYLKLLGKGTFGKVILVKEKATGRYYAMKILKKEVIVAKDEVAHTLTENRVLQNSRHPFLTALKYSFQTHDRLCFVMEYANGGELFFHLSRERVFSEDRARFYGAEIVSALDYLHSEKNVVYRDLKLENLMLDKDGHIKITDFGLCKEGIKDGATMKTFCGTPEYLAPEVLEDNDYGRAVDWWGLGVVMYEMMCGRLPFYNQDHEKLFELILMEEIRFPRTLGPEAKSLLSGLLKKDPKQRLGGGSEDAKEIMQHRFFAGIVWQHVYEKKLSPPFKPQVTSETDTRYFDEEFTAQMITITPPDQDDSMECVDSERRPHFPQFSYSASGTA

IC50 [nM]	Structure (SMILES)
3200	O=C(c1ccc(F)cc1)N1CCN(Cc2ccc(-c3nnc4n3-c3cccnc3Nc3ccccc3-4)cc2)CC1 [Example 132, (4-(4-(9H-benzo[f]pyrido[2,3-b][1,2,4]triazolo[4,3-d][1,4]diazepin-3-yl)benzyl)piperazin-1-yl)(4-fluorophenyl)methanone]
340	CC(C)(N)c1ccc(-c2nnc3n2-c2cccnc2Nc2ccccc2-3)cc1 [Example 192, 2-(4-(9H-benzo[f]pyrido[2,3-b][1,2,4]triazolo[4,3-d][1,4]diazepin-3-yl)phenyl)propan-2-amine]
3000	COc1cccc(S(=O)(=O)NC2CCN(Cc3ccc(-c4nnc5n4-c4cccnc4Nc4ccccc4-5)cc3)CC2)c1 [Example 150, N-(1-(4-(9H-benzo[f]pyrido[2,3-b][1,2,4]triazolo[4,3-d][1,4]diazepin-3-yl)benzyl)piperidin-4-yl)-3-methoxybenzenesulfonamide]
400	O=S(=O)(NCc1ccc(-c2nnc3n2-c2cccnc2Nc2ccccc2-3)cc1)c1cccc(F)c1 [Example 113, N-(4-(9H-benzo[f]pyrido[2,3-b][1,2,4]triazolo[4,3-d][1,4]diazepin-3-yl)benzyl)-3-fluorobenzenesulfonamide]
240	Cc1cc(C(=O)NC2(c3ccc(-c4nnc5n4-c4cccnc4Nc4ccccc4-5)cc3)CCC2)no1 [Example 206, N-(1-(4-(9H-benzo[f]pyrido[2,3-b][1,2,4]triazolo[4,3-d][1,4]diazepin-3-yl)phenyl)cyclobutyl)-5-methylisoxazole-3-carboxamide]
940	O=C(NCCc1ccc(Cl)cc1)NC1CCN(Cc2ccc(-c3nnc4n3-c3cccnc3Nc3ccccc3-4)cc2)CC1 [Example 180, 1-(1-(4-(9H-benzo[f]pyrido[2,3-b][1,2,4]triazolo[4,3-d][1,4]diazepin-3-yl)benzyl)piperidin-4-yl)-3-(4-chlorophenethyl)urea]
330	O=C(Nc1ccc(F)cc1)NC1CCN(Cc2ccc(-c3nnc4n3-c3cccnc3Nc3ccccc3-4)cc2)CC1 [Example 165, 1-(1-(4-(9H-benzo[f]pyrido[2,3-b][1,2,4]triazolo[4,3-d][1,4]diazepin-3-yl)benzyl)piperidin-4-yl)-3-(4-fluorophenyl)urea]
170	c1ccc2c(c1)Nc1ncccc1-n1c(-c3ccc(CN4CCC(c5nnc(-c6ccncc6)[nH]5)CC4)cc3)nnc1-2 [Example 131, 3-(4-((4-(5-(pyridin-4-yl)-4H-1,2,4-triazol-3-yl)piperidin-1-yl)methyl)phenyl)-9H-benzo[f]pyrido[2,3-b][1,2,4]triazolo[4,3-d][1,4]diazepine]
580	O=S(=O)(NC1(c2ccc(-c3nnc4n3-c3cccnc3Nc3ccccc3-4)cc2)CCC1)c1ccc(F)cc1 [Example 197, N-(1-(4-(9H-benzo[f]pyrido[2,3-b][1,2,4]triazolo[4,3-d][1,4]diazepin-3-yl)phenyl)cyclobutyl)-4-fluorobenzenesulfonamide]
760	O=S(=O)(NC1(c2ccc(-c3nnc4n3-c3cccnc3Nc3ccccc3-4)cc2)CCC1)c1cccc(F)c1 [Example 204, N-(1-(4-(9H-benzo[f]pyrido[2,3-b][1,2,4]triazolo[4,3-d][1,4]diazepin-3-yl)phenyl)cyclobutyl)-3-fluorobenzenesulfonamide]
5200	OCc1ccc(-c2nnc3n2-c2cccnc2Nc2ccc(Br)cc2-3)cc1 [Example 225, (4-(12-bromo-9H-benzo[f]pyrido[2,3-b][1,2,4]triazolo[4,3-d][1,4]diazepin-3-yl)phenyl)methanol]
170	O=S(=O)(NCc1ccc(-c2nnc3n2-c2cccnc2Nc2ccccc2-3)cc1)c1ccccc1F [Example 112, N-(4-(9H-benzo[f]pyrido[2,3-b][1,2,4]triazolo[4,3-d][1,4]diazepin-3-yl)benzyl)-2-fluorobenzenesulfonamide]
6900	O=C(c1ccc2c(c1)OCO2)N1CCN(Cc2ccc(-c3nnc4n3-c3cccnc3Nc3ccccc3-4)cc2)CC1 [Example 158, (4-(4-(9H-benzo[f]pyrido[2,3-b][1,2,4]triazolo[4,3-d][1,4]diazepin-3-yl)benzyl)piperazin-1-yl)(benzo[d][1,3]dioxol-5-yl)methanone]
490	Cc1ccc2c(c1)Nc1ncccc1-n1c(-c3ccc(C4(N)CCC4)cc3)nnc1-2 [Example 223, 1-(4-(11-methyl-9H-benzo[f]pyrido[2,3-b][1,2,4]triazolo[4,3-d][1,4]diazepin-3-yl)phenyl)cyclobutanamine]
5300	O=S(=O)(NC1CCN(Cc2ccc(-c3nnc4n3-c3cccnc3Nc3ccccc3-4)cc2)CC1)C1CC1 [Example 149, N-(1-(4-(9H-benzo[f]pyrido[2,3-b][1,2,4]triazolo[4,3-d][1,4]diazepin-3-yl)benzyl)piperidin-4-yl)cyclopropanesulfonamide]
140	CC(=O)Nc1ccc(S(=O)(=O)NCc2ccc(-c3nnc4n3-c3cccnc3Nc3ccccc3-4)cc2)cc1 [Example 120, N-(4-(N-(4-(9H-benzo[f]pyrido[2,3-b][1,2,4]triazolo[4,3-d][1,4]diazepin-3-yl)benzyl)sulfamoyl)phenyl) acetamide]
2000	N#Cc1cccc(C(=O)N2CCN(Cc3ccc(-c4nnc5n4-c4cccnc4Nc4ccccc4-5)cc3)CC2)c1 [Example 159, 3-(4-(4-(9H-benzo[f]pyrido[2,3-b][1,2,4]triazolo[4,3-d][1,4]diazepin-3-yl)benzyl)piperazine-1-carbonyl)benzonitrile]
770	CCCc1ccccc1NC(=O)NC1CCN(Cc2ccc(-c3nnc4n3-c3cccnc3Nc3ccccc3-4)cc2)CC1 [Example 177, 1-(1-(4-(9H-benzo[f]pyrido[2,3-b][1,2,4]triazolo[4,3-d][1,4]diazepin-3-yl)benzyl)piperidin-4-yl)-3-(2-propylphenyl)urea]

Continued, compound first:

Structure (SMILES)	IC50 [nM]
Fc1ccc(-c2nnc3n2-c2cccnc2Nc2ccccc2-3)c(F)c1 [Example 17]	7200
Oc1ccc(-c2nnc3n2-c2cccnc2Nc2ccccc2-3)cc1 [Example 19, 4-(9H-benzo[f]pyrido[2,3-b][1,2,4]triazolo[4,3-d][1,4]diazepin-3-yl)phenol]	2200
O=C(Nc1ccc(-c2nnc3n2-c2cccnc2Nc2ccccc2-3)cc1)c1ccco1 [Example 50, N-(4-(9H-benzo[f]pyrido[2,3-b][1,2,4]triazolo[4,3-d][1,4]diazepin-3-yl)phenyl)furan-2-carboxamide]	130
FC(F)(F)c1ccc(-c2nnc3n2-c2cccnc2Nc2ccccc2-3)cc1 [Example 8, 3-(4-(trifluoromethyl)phenyl)-9H-benzo[f]pyrido[2,3-b][1,2,4]triazolo[4,3-d][1,4]diazepine]	30000
COc1ccc(C(=O)Nc2ccc(-c3nnc4n3-c3cccnc3Nc3ccccc3-4)cc2)cc1 [Example 31, N-(4-(9H-benzo[f]pyrido[2,3-b][1,2,4]triazolo[4,3-d][1,4]diazepin-3-yl)phenyl)-4-methoxybenzamide]	160
c1c[nH]c(-c2nnc3n2-c2cccnc2Nc2ccccc2-3)c1 [Example 4, 3-(1H-pyrrol-2-yl)-9H-benzo[f]pyrido[2,3-b][1,2,4]triazolo[4,3-d][1,4]diazepine]	7900
O=C(Nc1ccc(-c2nnc3n2-c2cccnc2Nc2ccccc2-3)cc1)c1ccncc1 [Example 58, N-(4-(9H-benzo[f]pyrido[2,3-b][1,2,4]triazolo[4,3-d][1,4]diazepin-3-yl)phenyl)isonicotinamide]	350
Nc1ccc(-c2nnc3n2-c2ccccc2Nc2ccccc2-3)cc1 [Example 22, 4-(9H-dibenzo[b,f][1,2,4]triazolo[4,3-d][1,4]diazepin-3-yl)aniline]	1800
Fc1cccc(F)c1-c1nnc2n1-c1cccnc1Nc1ccccc1-2 [Example 16]	28000
CCN(Cc1ccncc1)Cc1ccc(-c2nnc3n2-c2cccnc2Nc2ccccc2-3)cc1 [Example 70, N-(4-(9H-benzo[f]pyrido[2,3-b][1,2,4]triazolo[4,3-d][1,4]diazepin-3-yl)benzyl)-N-(pyridin-4-ylmethyl)ethanamine]	2100
c1ccc(-c2nnc3n2-c2cccnc2Nc2ccccc2-3)cc1 [Example 1, 3-phenyl-9H-benzo[f]pyrido[2,3-b][1,2,4]triazolo[4,3-d][1,4]diazepine]	2800
CN(CCc1ccccn1)Cc1ccc(-c2nnc3n2-c2cccnc2Nc2ccccc2-3)cc1 [Example 75, N-(4-(9H-benzo[f]pyrido[2,3-b][1,2,4]triazolo[4,3-d][1,4]diazepin-3-yl)benzyl)-N-methyl-2-(pyridin-2-yl)ethanamine]	1100
O=C(NCc1ccc(-c2nnc3n2-c2cccnc2Nc2ccccc2-3)cc1)C1CCC1 [Example 100, N-(4-(9H-benzo[f]pyrido[2,3-b][1,2,4]triazolo[4,3-d][1,4]diazepin-3-yl)benzyl)cyclobutanecarboxamide]	1800
O=C(NCc1ccc(-c2nnc3n2-c2cccnc2Nc2ccccc2-3)cc1)c1cccnc1 [Example 96, N-(4-(9H-benzo[f]pyrido[2,3-b][1,2,4]triazolo[4,3-d][1,4]diazepin-3-yl)benzyl)nicotinamide]	200
COC(=O)c1ccc(-c2nnc3n2-c2cccnc2Nc2ccccc2-3)cc1 [Example 25, methyl 4-(9H-benzo[f]pyrido[2,3-b][1,2,4]triazolo[4,3-d][1,4]diazepin-3-yl)benzoate]	2600
O=C(NCc1ccc(-c2nnc3n2-c2cccnc2Nc2ccccc2-3)cc1)c1ccccc1 [Example 99, N-(4-(9H-benzo[f]pyrido[2,3-b][1,2,4]triazolo[4,3-d][1,4]diazepin-3-yl)benzyl)benzamide]	200
O=C(Nc1ccc(-c2nnc3n2-c2cccnc2Nc2ccccc2-3)cc1)C1CCC1 [Example 57, N-(4-(9H-benzo[f]pyrido[2,3-b][1,2,4]triazolo[4,3-d][1,4]diazepin-3-yl)phenyl)cyclobutanecarboxamide]	700
